This is an account of results in patent US20130052204A1, “(POLY)-GLYCEROLPHOSPHATE-BASED ANTI-GRAM POSITIVE BACTERIAL VACCINE” (priority 2009, published 2013).

Common to all, as to type: binding
In one experiment the test system is Pagibaximab (anti-LTA). Nature of the experiment: ELISA: biotinylated LTA or PGP added to Pagibaximab-coated plates. The following applies: for O.D. readings: Pagibaximab-coated wells. How it is done: (§1) ELISA plates (96-well) were coated overnight with […] of Pagibaximab (anti-LTA), Zantibody (anti-peptidoglycan), or Synagis (anti-RSV), all of which are chimeric IgG1 antibodies. PGP was prepared as described above in Example 1, and LTA was extracted from S. aureus. The plates were then developed with horseradish peroxidase for 30 minutes.

The subject of experiment [1] is Zantibody (anti-peptidoglycan). Nature of the experiment: ELISA: biotinylated LTA or PGP added to Zantibody-coated plates. The following applies: anti-peptidoglycan-coated wells. The protocol: as §1
A general note: An ELISA detects its analyte on a solid surface through an enzyme-linked reagent.

Another experiment deals with Synagis (anti-RSV). Nature of the experiment: ELISA: biotinylated LTA or PGP added to Synagis-coated plates. The following applies: Synagis-coated wells. How it is done:
as §1

The mark [2] stands for this setting: biotinylated LTA or PGP at 0.004 μg/ml.
The mark [3] stands for this setting: biotinylated LTA or PGP at 0.012 μg/ml.
The mark [4] stands for this setting: biotinylated LTA or PGP at 0.037 μg/ml.
Setting [5] is: biotinylated LTA or PGP at 0.1 μg/ml.
Setting [6] is: biotinylated LTA or PGP at 0.33 μg/ml.
The mark [7] stands for this setting: biotinylated LTA or PGP at 1 μg/ml.
The mark [8] stands for this setting: biotinylated LTA or PGP at 3 μg/ml.

Entries after “also recorded” stand apart in the source; their conditions may differ. A value given as a limit tells only on which side of the number the result lay.

For the substance poly-glycerolphosphate [PGP], the O.D. readings in the experiment with Pagibaximab (anti-LTA) (setting [2]) was 0.34; with Pagibaximab (anti-LTA) (setting [3]), 0.51; in the experiment with Pagibaximab (anti-LTA) (setting [4]), 0.67; with Pagibaximab (anti-LTA) (setting [5]), 0.89; in the experiment with Pagibaximab (anti-LTA) (setting [6]) it was 1.09; in the experiment with Pagibaximab (anti-LTA) (setting [7]), 1.42. In addition, the O.D. readings in the experiment on Pagibaximab (anti-LTA) (biotinylated LTA or PGP at 3 μg/ml, one hour) is 1.91; in experiment [1] (setting [2]), under 0.02; in experiment [1] (setting [3]), under 0.02; in experiment [1] (setting [4]), under 0.02; in experiment [1] (setting [5]) it was under 0.02; in experiment [1] (setting [6]) it was under 0.02. For the same substance, the O.D. readings is reported as under 0.02 in experiment [1] (setting [7]); 0.03 in experiment [1] (setting [8]); under 0.02 in the experiment with Synagis (anti-RSV) (setting [2]); under 0.02 in the experiment on Synagis (anti-RSV) (setting [3]); under 0.02 in the experiment on Synagis (anti-RSV) (setting [4]); under 0.02 in the experiment with Synagis (anti-RSV) (setting [5]). The O.D. readings in the experiment on Synagis (anti-RSV) (setting [6]), with Synagis (anti-RSV) (setting [7]) and with Synagis (anti-RSV) (setting [8]) was under 0.02 throughout. Besides, in the experiment on Pagibaximab (anti-LTA) (compared with LTA from S. aureus), the “recognition / binding by Pagibaximab (in words)” value is recorded as “recognized; also recorded: binds equally well”.
